Reference: ChEMBL document CHEMBL5614394, “Novel pleuromutilin derivatives conjugated with phenyl-sulfide and boron-containing moieties as potent antibacterial agents against antibiotic-resistant bacteria” (Eur J Med Chem, 2024)
Values after ≈ are worked out from the molar mass of the structure shown.

Assays:
[1] = system: Staphylococcus epidermidis; experiment: Antibacterial activity against Staphylococcus epidermidis ATCC 12228 assessed as inhibition of visible growth of bacteria incubated for 24 hrs by CLSI protocol based broth-dilution method; format: functional
Staphylococcus aureus = experiment: Antibacterial activity against Staphylococcus aureus ATCC 29213 assessed as inhibition of visible growth of bacteria incubated for 24 hrs by CLSI protocol based broth-dilution method; format: functional

| Compound | MIC [1] [µg/mL] | MIC (Staphylococcus aureus) [µg/mL] |
| --- | --- | --- |
| C=C[C@]1(C)C[C@@H](OC(=O)CSc2cccc(NC(=O)c3ccc(B(O)O)c([N+](=O)[O-])c3)c2)[C@]2(C)[C@H](C)CC[C@]3(CCC(=O)[C@H]32)[C@@H](C)[C@@H]1O | 0.063 (≈ 0.0928 µM) | 0.063 (≈ 0.0928 µM) |
| 22-(3-(((5-Borono-3-pyridinyl)carbonyl)amino)phenylsulfanyl)-22-deoxypleuromutilin | 0.25 | 0.25 |
| C=C[C@]1(C)C[C@@H](OC(=O)CSc2cccc(NCc3ccccc3B(O)O)c2)[C@]2(C)[C@H](C)CC[C@]3(CCC(=O)[C@H]32)[C@@H](C)[C@@H]1O | 0.031 (≈ 0.05 µM) | 0.031 (≈ 0.05 µM) |
| C=C[C@]1(C)C[C@@H](OC(=O)CSc2cccc(NC(=O)c3ccc(C)c(B(O)O)c3)c2)[C@]2(C)[C@H](C)CC[C@]3(CCC(=O)[C@H]32)[C@@H](C)[C@@H]1O | 0.031 (≈ 0.0479 µM) | 0.031 (≈ 0.0479 µM) |
| C=C[C@]1(C)C[C@@H](OC(=O)CSc2ccc(NC(=O)c3ccc4c(c3)B(O)OC4)cc2)[C@]2(C)[C@H](C)CC[C@]3(CCC(=O)[C@H]32)[C@@H](C)[C@@H]1O | 0.25 (≈ 0.387 µM) | 0.016 (≈ 0.0248 µM) |
| C=C[C@]1(C)C[C@@H](OC(=O)CSc2cccc(NC(=O)c3cc(C)cc(B(O)O)c3)c2)[C@]2(C)[C@H](C)CC[C@]3(CCC(=O)[C@H]32)[C@@H](C)[C@@H]1O | 0.031 (≈ 0.0479 µM) | 0.031 (≈ 0.0479 µM) |
| C=C[C@]1(C)C[C@@H](OC(=O)CSc2cccc(NC(=O)c3ccc(B(O)O)c(F)c3)c2)[C@]2(C)[C@H](C)CC[C@]3(CCC(=O)[C@H]32)[C@@H](C)[C@@H]1O | 16 (≈ 24.6 µM) | 0.063 (≈ 0.0967 µM) |
| C=C[C@]1(C)C[C@@H](OC(=O)CSc2cccc(NC(=O)c3cc(F)c(B(O)O)c(F)c3)c2)[C@]2(C)[C@H](C)CC[C@]3(CCC(=O)[C@H]32)[C@@H](C)[C@@H]1O | 0.031 (≈ 0.0463 µM) | 0.031 (≈ 0.0463 µM) |
| C=C[C@]1(C)C[C@@H](OC(=O)CSc2cccc(NC(=O)c3ccc(B(O)O)c(F)c3F)c2)[C@]2(C)[C@H](C)CC[C@]3(CCC(=O)[C@H]32)[C@@H](C)[C@@H]1O | 0.031 (≈ 0.0463 µM) | 0.031 (≈ 0.0463 µM) |
| C=C[C@]1(C)C[C@@H](OC(=O)CSc2cccc(NC(=O)c3cc(B(O)O)ccc3OC)c2)[C@]2(C)[C@H](C)CC[C@]3(CCC(=O)[C@H]32)[C@@H](C)[C@@H]1O | 0.031 (≈ 0.0467 µM) | 0.031 (≈ 0.0467 µM) |
| C=C[C@]1(C)C[C@@H](OC(=O)CSc2cccc(NC(=O)c3ccc(B(O)O)cc3Cl)c2)[C@]2(C)[C@H](C)CC[C@]3(CCC(=O)[C@H]32)[C@@H](C)[C@@H]1O | 1 (≈ 1.5 µM) | 0.063 (≈ 0.0943 µM) |
| C=C[C@]1(C)C[C@@H](OC(=O)CSc2cccc(NC(=O)c3cc(B(O)O)cc(C(F)(F)F)c3)c2)[C@]2(C)[C@H](C)CC[C@]3(CCC(=O)[C@H]32)[C@@H](C)[C@@H]1O | 0.5 (≈ 0.713 µM) | 0.063 (≈ 0.0898 µM) |
| C=C[C@]1(C)C[C@@H](OC(=O)CSc2cccc(NC(=O)c3ccc(B4OC(C)(C)C(C)(C)O4)cc3)c2)[C@]2(C)[C@H](C)CC[C@]3(CCC(=O)[C@H]32)[C@@H](C)[C@@H]1O | 0.063 (≈ 0.088 µM) | 0.063 (≈ 0.088 µM) |
| C=C[C@]1(C)C[C@@H](OC(=O)CSc2cccc(NC(=O)c3cc(B(O)O)ccc3F)c2)[C@]2(C)[C@H](C)CC[C@]3(CCC(=O)[C@H]32)[C@@H](C)[C@@H]1O | 0.063 (≈ 0.0967 µM) | 0.063 (≈ 0.0967 µM) |
| C=C[C@]1(C)C[C@@H](OC(=O)CSc2cccc(NC(=O)c3ccc(B(O)O)c(OC)c3)c2)[C@]2(C)[C@H](C)CC[C@]3(CCC(=O)[C@H]32)[C@@H](C)[C@@H]1O | 0.031 (≈ 0.0467 µM) | 0.031 (≈ 0.0467 µM) |
| C=C[C@]1(C)C[C@@H](OC(=O)CSc2cccc(NCc3cccc(B(O)O)c3)c2)[C@]2(C)[C@H](C)CC[C@]3(CCC(=O)[C@H]32)[C@@H](C)[C@@H]1O | 0.125 (≈ 0.202 µM) | 0.063 (≈ 0.102 µM) |

| Compound | MIC [1] [µg/mL] | MIC (Staphylococcus aureus) [µg/mL] |
| --- | --- | --- |
| C=C[C@]1(C)C[C@@H](OC(=O)CSc2cccc(NC(=O)c3ccc(B(O)O)o3)c2)[C@]2(C)[C@H](C)CC[C@]3(CCC(=O)[C@H]32)[C@@H](C)[C@@H]1O | 0.063 (≈ 0.101 µM) | 0.5 (≈ 0.802 µM) |
| C=C[C@]1(C)C[C@@H](OC(=O)CS[C@@H]2CC[C@@H](NC(=O)c3ccc4c(c3)B(O)OC4)C[C@H]2O)[C@]2(C)[C@H](C)CC[C@]3(CCC(=O)[C@H]32)[C@@H](C)[C@@H]1O | 4 (≈ 5.99 µM) | 0.063 (≈ 0.0944 µM) |
| C=C[C@]1(C)C[C@@H](OC(=O)CSc2ccc(NC(=O)c3ccc(F)c(B(O)O)c3)cc2)[C@]2(C)[C@H](C)CC[C@]3(CCC(=O)[C@H]32)[C@@H](C)[C@@H]1O | 16 (≈ 24.6 µM) | 0.063 (≈ 0.0967 µM) |
| C=C[C@]1(C)C[C@@H](OC(=O)CSc2cccc(NC(=O)c3cccc(B(O)O)c3)c2)[C@]2(C)[C@H](C)CC[C@]3(CCC(=O)[C@H]32)[C@@H](C)[C@@H]1O | 0.063 (≈ 0.0994 µM) | 0.063 (≈ 0.0994 µM) |
| C=C[C@]1(C)C[C@@H](OC(=O)CSc2ccc(NC(=O)c3ccc(B(O)O)cc3F)cc2)[C@]2(C)[C@H](C)CC[C@]3(CCC(=O)[C@H]32)[C@@H](C)[C@@H]1O | 4 (≈ 6.14 µM) | 0.063 (≈ 0.0967 µM) |
| C=C[C@]1(C)C[C@@H](OC(=O)CSc2ccccc2NC(=O)c2ccc3c(c2)B(O)OC3)[C@]2(C)[C@H](C)CC[C@]3(CCC(=O)[C@H]32)[C@@H](C)[C@@H]1O | 1 (≈ 1.55 µM) | 0.063 (≈ 0.0976 µM) |
| C=C[C@]1(C)C[C@@H](OC(=O)CSc2cccc(NC(=O)c3cc(OC)cc(B(O)O)c3)c2)[C@]2(C)[C@H](C)CC[C@]3(CCC(=O)[C@H]32)[C@@H](C)[C@@H]1O | 0.031 (≈ 0.0467 µM) | 0.031 (≈ 0.0467 µM) |
| C=C[C@]1(C)C[C@@H](OC(=O)CSc2ccc(NC(=O)c3cc(B(O)O)ccc3F)cc2)[C@]2(C)[C@H](C)CC[C@]3(CCC(=O)[C@H]32)[C@@H](C)[C@@H]1O | 1 (≈ 1.53 µM) | 0.063 (≈ 0.0967 µM) |
| C=C[C@]1(C)C[C@@H](OC(=O)CSc2cccc(NC(=O)c3ccc(B(O)O)c(Cl)c3)c2)[C@]2(C)[C@H](C)CC[C@]3(CCC(=O)[C@H]32)[C@@H](C)[C@@H]1O | 1 (≈ 1.5 µM) | 0.063 (≈ 0.0943 µM) |
| C=C[C@]1(C)C[C@@H](OC(=O)CSc2cccc(NC(=O)c3ccc(B(O)O)cc3F)c2)[C@]2(C)[C@H](C)CC[C@]3(CCC(=O)[C@H]32)[C@@H](C)[C@@H]1O | 0.063 (≈ 0.0967 µM) | 0.063 (≈ 0.0967 µM) |
| C=C[C@]1(C)C[C@@H](OC(=O)CSc2ccc(NC(=O)c3ccc(B(O)O)c(F)c3)cc2)[C@]2(C)[C@H](C)CC[C@]3(CCC(=O)[C@H]32)[C@@H](C)[C@@H]1O | 16 (≈ 24.6 µM) | 0.063 (≈ 0.0967 µM) |
| C=C[C@]1(C)C[C@@H](OC(=O)CSc2cccc(NC(=O)c3ccc(F)c(B(O)O)c3)c2)[C@]2(C)[C@H](C)CC[C@]3(CCC(=O)[C@H]32)[C@@H](C)[C@@H]1O | 16 (≈ 24.6 µM) | 0.063 (≈ 0.0967 µM) |
| C=C[C@]1(C)C[C@@H](OC(=O)CSc2ccc(NC(=O)c3cccc(B(O)O)c3)cc2)[C@]2(C)[C@H](C)CC[C@]3(CCC(=O)[C@H]32)[C@@H](C)[C@@H]1O | 0.031 (≈ 0.0489 µM) | 0.031 (≈ 0.0489 µM) |
| C=C[C@]1(C)C[C@@H](OC(=O)CSc2cccc(NC(=O)c3cc(N)cc(B(O)O)c3)c2)[C@]2(C)[C@H](C)CC[C@]3(CCC(=O)[C@H]32)[C@@H](C)[C@@H]1O | 0.063 (≈ 0.0971 µM) | 0.063 (≈ 0.0971 µM) |
| C=C[C@]1(C)C[C@@H](OC(=O)CSc2cccc(NC(=O)Cc3cccc(B(O)O)c3)c2)[C@]2(C)[C@H](C)CC[C@]3(CCC(=O)[C@H]32)[C@@H](C)[C@@H]1O | 0.063 (≈ 0.0973 µM) | 0.063 (≈ 0.0973 µM) |
| C=C[C@]1(C)C[C@@H](OC(=O)CSc2ccc(NC(=O)c3ccc(B(O)O)cc3)cc2)[C@]2(C)[C@H](C)CC[C@]3(CCC(=O)[C@H]32)[C@@H](C)[C@@H]1O | 0.5 (≈ 0.789 µM) | 0.063 (≈ 0.0994 µM) |
